Test system: moderate-to-severe chronic spontaneous urticaria (CSU)
Assay: Phase 2 CSU study: itch severity score over 7 days (ISS7)
Format: in vivo, human
Settings: for Non-responder n (%) (ISS7 reduction of 5 points or more) / OR for rilzabrutinib vs. placebo (ISS7 reduction of 5 points or more) / Responder n (%) (ISS7 reduction of 5 points or more) / Imputed non-responder n (%) (ISS7 reduction of 5 points or more) / RRD (%) for rilzabrutinib vs. placebo (ISS7 reduction of 5 points or more): Omalizumab-Naïve Population; for ISS7 Post-baseline Mean (SD): Omalizumab-Naïve, outlier removed
Excerpt: The study comprises a 12 week, randomized, double-blind, placebo-controlled, multi-center, dose-ranging efficacy and safety phase, followed by a 40 week open label extension (OLE) phase (see FIG. 1). The study consists of three phases and an optional OLE phase. […] Clinically, CSU is characterized by the spontaneous and recurrent appearance of pruritic hives. The proposed primary endpoints were the UAS7 at Week 12 in EU and EU reference countries and the ISS7 in the US. Regardless of where a participant was from, all assessments were the same. The UAS7 score is a composite score containing both the HSS7 and the ISS7. This allowed a global assessment of the two key components of urticaria: hives and itch. […] The UAS is a validated PRO measure. […] The daily UAS scores range from 0 to 6 point/day. […] Patients were to complete the UAS using the e-diary. […] The following secondary endpoints were to be analyzed using the same approach as for the primary endpoint: • Change from baseline in UAS7 at Week 4 • Change from baseline in UAS7 at Week 12 (for US and US reference countries) • Change from baseline in ISS7 at Week 12 (except US and US reference countries) • Change from baseline in HSS7 at Week 12

## CC(C)(C=C(C#N)C(=O)N1CCC[C@@H](n2nc(-c3ccc(Oc4ccccc4)cc3F)c3c(N)ncnc32)C1)N1CCN(C2COC2)CC1 [rilzabrutinib, (R)-2-[3-[4-amino-3-(2-fluoro-4-phenoxy-phenyl)pyrazolo[3,4-d]pyrimidin-1-yl]piperidine-1-carbonyl]-4-methyl-4-[4-(oxetan-3-yl)piperazin-1-yl]pent-2-enenitrile]
400 mg QPM, Week 10
  Non-responder n (%) (ISS7 reduction of 5 points or more): 14 (37.8) n (%)
  OR for rilzabrutinib vs. placebo (ISS7 reduction of 5 points or more): 1.614
  Responder n (%) (ISS7 reduction of 5 points or more): 23 (62.2) n (%)
  ISS7 Post-baseline Mean (SD): 10.43 (5.30)
400 mg QPM, Week 11
  Imputed non-responder n (%) (ISS7 reduction of 5 points or more): 7 (18.9) n (%)
  Non-responder n (%) (ISS7 reduction of 5 points or more): 17 (45.9) n (%)
  OR for rilzabrutinib vs. placebo (ISS7 reduction of 5 points or more): 0.932
  RRD (%) for rilzabrutinib vs. placebo (ISS7 reduction of 5 points or more): −1.7%
  Responder n (%) (ISS7 reduction of 5 points or more): 20 (54.1) n (%)
  ISS7 Post-baseline Mean (SD): 11.03 (5.55)
400 mg QPM, Week 12
  Imputed non-responder n (%) (ISS7 reduction of 5 points or more): 10 (27.0) n (%)
  Non-responder n (%) (ISS7 reduction of 5 points or more): 21 (56.8) n (%)
  OR for rilzabrutinib vs. placebo (ISS7 reduction of 5 points or more): 0.851
  RRD (%) for rilzabrutinib vs. placebo (ISS7 reduction of 5 points or more): −4.2%
  Responder n (%) (ISS7 reduction of 5 points or more): 16 (43.2) n (%)
400 mg TID, Week 1
  Imputed non-responder n (%) (ISS7 reduction of 5 points or more): 0 n (%)
  Non-responder n (%) (ISS7 reduction of 5 points or more): 13 (37.1) n (%)
  OR for rilzabrutinib vs. placebo (ISS7 reduction of 5 points or more): 5.851
  RRD (%) for rilzabrutinib vs. placebo (ISS7 reduction of 5 points or more): 40.1%
  Responder n (%) (ISS7 reduction of 5 points or more): 22 (62.9) n (%)
400 mg TID, Week 2
  Imputed non-responder n (%) (ISS7 reduction of 5 points or more): 0 n (%)
  Non-responder n (%) (ISS7 reduction of 5 points or more): 12 (34.3) n (%)
  OR for rilzabrutinib vs. placebo (ISS7 reduction of 5 points or more): 4.876
  RRD (%) for rilzabrutinib vs. placebo (ISS7 reduction of 5 points or more): 36.4%
  Responder n (%) (ISS7 reduction of 5 points or more): 23 (65.7) n (%)
400 mg TID, Week 3
  Imputed non-responder n (%) (ISS7 reduction of 5 points or more): 0 n (%)
  Non-responder n (%) (ISS7 reduction of 5 points or more): 12 (34.3) n (%)
  OR for rilzabrutinib vs. placebo (ISS7 reduction of 5 points or more): 3.637
  RRD (%) for rilzabrutinib vs. placebo (ISS7 reduction of 5 points or more): 34.3%
  Responder n (%) (ISS7 reduction of 5 points or more): 23 (65.7) n (%)
400 mg TID, Week 4
  Imputed non-responder n (%) (ISS7 reduction of 5 points or more): 3 (8.6) n (%)
  Non-responder n (%) (ISS7 reduction of 5 points or more): 11 (31.4) n (%)
  OR for rilzabrutinib vs. placebo (ISS7 reduction of 5 points or more): 2.777
  RRD (%) for rilzabrutinib vs. placebo (ISS7 reduction of 5 points or more): 25.1%
  Responder n (%) (ISS7 reduction of 5 points or more): 24 (68.6) n (%)
400 mg TID, Week 5
  Imputed non-responder n (%) (ISS7 reduction of 5 points or more): 2 (5.7) n (%)
  Non-responder n (%) (ISS7 reduction of 5 points or more): 10 (28.6) n (%)
  OR for rilzabrutinib vs. placebo (ISS7 reduction of 5 points or more): 2.535
  RRD (%) for rilzabrutinib vs. placebo (ISS7 reduction of 5 points or more): 22.7%
  Responder n (%) (ISS7 reduction of 5 points or more): 25 (71.4) n (%)
400 mg TID, Week 6
  Imputed non-responder n (%) (ISS7 reduction of 5 points or more): 4 (11.4) n (%)
  Non-responder n (%) (ISS7 reduction of 5 points or more): 15 (42.9) n (%)
  OR for rilzabrutinib vs. placebo (ISS7 reduction of 5 points or more): 1.563
  Responder n (%) (ISS7 reduction of 5 points or more): 20 (57.1) n (%)
400 mg TID, Week 7
  Imputed non-responder n (%) (ISS7 reduction of 5 points or more): 5 (14.3) n (%)
  Non-responder n (%) (ISS7 reduction of 5 points or more): 11 (31.4) n (%)
  OR for rilzabrutinib vs. placebo (ISS7 reduction of 5 points or more): 2.715
  RRD (%) for rilzabrutinib vs. placebo (ISS7 reduction of 5 points or more): 23.5%
  Responder n (%) (ISS7 reduction of 5 points or more): 24 (68.6) n (%)
400 mg TID, Week 8
  Imputed non-responder n (%) (ISS7 reduction of 5 points or more): 7 (20.0) n (%)
  Non-responder n (%) (ISS7 reduction of 5 points or more): 12 (34.3) n (%)
  OR for rilzabrutinib vs. placebo (ISS7 reduction of 5 points or more): 1.891
  RRD (%) for rilzabrutinib vs. placebo (ISS7 reduction of 5 points or more): 16.1%
  Responder n (%) (ISS7 reduction of 5 points or more): 23 (65.7) n (%)
400 mg TID, Week 9
  Imputed non-responder n (%) (ISS7 reduction of 5 points or more): 6 (17.1) n (%)
  Non-responder n (%) (ISS7 reduction of 5 points or more): 11 (31.4) n (%)
  OR for rilzabrutinib vs. placebo (ISS7 reduction of 5 points or more): 2.956
  RRD (%) for rilzabrutinib vs. placebo (ISS7 reduction of 5 points or more): 25.1%
  Responder n (%) (ISS7 reduction of 5 points or more): 24 (68.6) n (%)
400 mg TID, Week 10
  Imputed non-responder n (%) (ISS7 reduction of 5 points or more): 5 (14.3) n (%)
  Non-responder n (%) (ISS7 reduction of 5 points or more): 12 (34.3) n (%)
  OR for rilzabrutinib vs. placebo (ISS7 reduction of 5 points or more): 1.910
  RRD (%) for rilzabrutinib vs. placebo (ISS7 reduction of 5 points or more): 15.5%
  Responder n (%) (ISS7 reduction of 5 points or more): 23 (65.7) n (%)
400 mg TID, Week 11
  Imputed non-responder n (%) (ISS7 reduction of 5 points or more): 4 (11.4) n (%)
  Non-responder n (%) (ISS7 reduction of 5 points or more): 10 (28.6) n (%)
  OR for rilzabrutinib vs. placebo (ISS7 reduction of 5 points or more): 1.951
  RRD (%) for rilzabrutinib vs. placebo (ISS7 reduction of 5 points or more): 15.5%
  Responder n (%) (ISS7 reduction of 5 points or more): 25 (71.4) n (%)
400 mg TID, Week 12
  Imputed non-responder n (%) (ISS7 reduction of 5 points or more): 8 (22.9) n (%)
  Non-responder n (%) (ISS7 reduction of 5 points or more): 15 (42.9) n (%)
  OR for rilzabrutinib vs. placebo (ISS7 reduction of 5 points or more): 1.469
  Responder n (%) (ISS7 reduction of 5 points or more): 20 (57.1) n (%)
400 mg BID, Week 2
  ISS7 Post-baseline Mean (SD): 10.32 (5.64)
400 mg BID, Week 3
  ISS7 Post-baseline Mean (SD): 9.16 (6.09)
400 mg BID, Week 4
  ISS7 Post-baseline Mean (SD): 8.32 (6.02)
400 mg BID, Week 5
  ISS7 Post-baseline Mean (SD): 8.88 (6.81)
400 mg BID, Week 6
  ISS7 Post-baseline Mean (SD): 8.85 (6.40)
400 mg BID, Week 7
  ISS7 Post-baseline Mean (SD): 8.21 (6.16)
400 mg BID, Week 8
  ISS7 Post-baseline Mean (SD): 7.33 (6.55)
400 mg BID, Week 9
  ISS7 Post-baseline Mean (SD): 7.63 (7.11)
400 mg BID, Week 10
  ISS7 Post-baseline Mean (SD): 8.17 (7.29)
400 mg BID, Week 11
  ISS7 Post-baseline Mean (SD): 7.93 (6.94)
400 mg BID, Week 12
  ISS7 Post-baseline Mean (SD): 8.09 (6.95)
400 mg QPM, Week 1
  ISS7 Post-baseline Mean (SD): 13.08 (4.52)
400 mg QPM, Week 3
  ISS7 Post-baseline Mean (SD): 11.60 (4.68)
400 mg QPM, Week 4
  ISS7 Post-baseline Mean (SD): 11.39 (4.79)
400 mg QPM, Week 5
  ISS7 Post-baseline Mean (SD): 11.00 (4.68)
400 mg QPM, Week 6
  ISS7 Post-baseline Mean (SD): 10.27 (5.26)
400 mg QPM, Week 7
  ISS7 Post-baseline Mean (SD): 10.68 (5.34)
400 mg QPM, Week 8
  ISS7 Post-baseline Mean (SD): 10.72 (5.26)

Source: patent publication US20260256792A1, “TREATMENT OF CHRONIC SPONTANEOUS URTICARIA BY ADMINISTERING (R)-2-[3-[4-AMINO-3-(2-FLUORO-4-PHENOXY-PHENYL)PYRAZOLO[3,4-D]PYRIMIDIN-1-YL]PIPERIDINE-1-CARBONYL]-4-METHYL-4-[4-(OXETAN-3-YL)PIPERAZIN-1-YL]PENT-2-ENENITRILE” (priority 2023, published 2026)
